Assay results from patent publication US20220274980A1, “PHARMACOLOGICAL INHIBITORS OF THE ENL YEATS DOMAIN” (priority 2019, published 2022).
Like-named read-outs stand apart in the source and are kept apart here.

Experiments:
[1] = molecular target: T1, ENL YEATS domain (association with H3K27cr) (Homo sapiens, UniProt Q03111); test: biochemical
T1 sequence (Q03111 1-148): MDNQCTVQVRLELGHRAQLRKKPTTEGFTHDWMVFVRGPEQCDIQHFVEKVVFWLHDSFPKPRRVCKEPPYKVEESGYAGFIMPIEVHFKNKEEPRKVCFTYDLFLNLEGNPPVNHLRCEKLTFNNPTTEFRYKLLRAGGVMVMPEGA
Description: (§1) Protein Production. Double stranded DNA fragments encoding the protein sequence of ENL YEATS(1-148) were synthesized (IDT DNA) for assembly-based cloning into a modified expression vector backbone derived from pET21a (Novagen). The protein was fused to a StrepII-SUMO and 6×His tag on the amino and carboxy terminus, respectively. Transformed BL21(DE3) cells (New England Biolabs) were grown at 37° C. in 2×YT growth medium to an OD600 of 0.6. Protein expression was induced at 25° C. with the addition of isopropyl-β-D-thiogalactopyranoside (IPTG) to a final concentration of 0.4 mM. The culture was harvested by centrifugation following a 20-hour incubation and subsequently purified by immobilized metal affinity chromatography. Cells were resuspended 50 mM Tris-HCl pH 8.0, 300 mM NaCl, 10% glycerol, 10 mM imidazole, 1 mM DTT containing Complete EDTA-free protease inhibitor (Roche) and lysed by two passes through a MicroFluidizer at 10,000 psi. The lysate was clarified by centrifugation at 16,000 rpm for 30 minutes at 4° C. The supernatant was passed over NiNTA agarose (QIAGEN) and the protein was eluted in 50 mM Tris-HCl pH 8.0, 300 mM NaCl, 10% glycerol, 250 mM imidazole, 1 mM DTT. Fractions containing the ENL YEATS(1-148) fusion protein were buffer exchanged into 100 mM Tris-HCl pH 8.0, 150 mM NaCl, 1 mM EDTA, 1 mM DTT using PD10 desalting columns (GE Life Sciences). Ulp1 protease was added to cleave the StrepII-SUMO fusion and the reaction mixture was incubated overnight at 4° C. The cleavage reaction mixture was loaded onto a StrepTrap column (GE Life Sciences) and ENL YEATS(1-148) was recovered in the flow through. BRD4 BD1 was purchased from Cayman (Cat. No. 11720).
(§2) Homogenous time-resolved FRET (HTRF) histone-binding assays. Both HTRF assays were performed by combining recombinant protein and synthetic histone peptide in assay buffer (25 mM HEPES pH 7, 20 mM NaCl, 0.2% Pluronic F-127, and 0.05% BSA) with 1 nM LanthaScreen Eu-anti-His Tag antibody (ThermoFisher, Cat. No, PV5597) and 8.9 nM SureLight allophycocyanin-streptavidin (Perkin Elmer, APC-SA, Cat. No. CR130-100). ENL YEATS was used at 5 nM and BRD4 BD1 was used at 10 nM. ENL assays were performed with H3(13-32)K27cr (13.3 and 100 nM, respectively), custom synthesized at ABclonal (N-terminal biotin, C-terminal amide); BRD4 BD1 assay was performed with 13.3 nM tetra-acetylated H4 (BioVision, Cat. No. 7144-01). Once all reagents were combined (with or without peptide), 10 μL was dispensed per well into black 384-well low-volume plates (Corning, Cat. No. 3821) and drug was added by pin tool transfer (Biomek FX). Assays were incubated for 2 or more hours before measurement of HTRF signal on a PHERAstar plate reader (BMG Labtech; simultaneous dual emission; excitation=337 nm, emission 1=665 nm, emission 2=620 nm). HTRF signal (ratio of emission 1 to emission 2) from vehicle-treated wells (maximum signal) and no-peptide-control wells (minimum signal) were used to calculate percent inhibition for drug-treated wells.

BRD4 bromodomain 1 (BD1) = molecular target: T2, BRD4 bromodomain 1 (BD1) (Homo sapiens, UniProt O60885); test: BRD4 (BD1)-H4 tetra-acetylated HTRF histone-binding assay
T2 construct: Selectivity against BRD4 bromodomain 1 (BD1), measured by HTRF; His; purchased Cayman 11720
Description: as §1, §2

[2] = ENL (YEATS)-H3K27cr HTRF (IC50, μM), Table 1
[3] = ENL (YEATS)-H3K27cr HTRF (IC50, μM), Table 2
[4] = read-out: ENL (YEATS)-H3K27cr HTRF (IC50), Table 1

| Compound | IC50 [1, 2] [µM] | IC50 [1, 3] [µM] | IC50 (BRD4 bromodomain 1 (BD1); Table 1) [µM] | IC50 (BRD4 bromodomain 1 (BD1); Table 2) [µM] | IC50 [1, 4] [µM] |
| --- | --- | --- | --- | --- | --- |
| CC(C)NC(=O)c1ccc2nc(-c3cccc(NS(=O)(=O)NC[C@H]4CC[C@H](C(=O)O)CC4)c3)cn2c1 [Compound 65] | 0.32 | 0.32 | > 50 | > 50 |  |
| CC(C)NC(=O)c1ccc2nc(-c3cccc(NS(=O)(=O)NCCCCCCCC(=O)O)c3)cn2c1 [Compound 63] | 0.46 | 0.46 | > 50 | > 50 |  |
| O=C(NC1C2CC1C2)c1ccc2nc(-c3ccccc3)cn2c1 (stereo not shown) [Compound 125] |  |  |  |  | > 50 |
| CC(C)NC(=O)c1ccc2nc(-c3ccc([N+](=O)[O-])cc3)cn2c1 [Compound 37] | 2.8 | 2.8 | > 50 | > 50 |  |
| COc1ccc(CNS(=O)(=O)Nc2cccc(-c3cn4cc(C(=O)NC(C)C)ccc4n3)c2)c(OC)c1 [Compound 50] | 0.52 | 0.52 | > 50 | > 50 |  |
| CC(C)NC(=O)c1ccc2nc(-c3cccc(NS(=O)(=O)NCCCn4ccnc4)c3)cn2c1 [Compound 67] | 0.33 | 0.33 | > 50 | > 50 |  |
| CC(C)NC(=O)c1ccc2nc(-c3cccc(NS(=O)(=O)NCc4ccc(F)cc4)c3)cn2c1 [Compound 51] | 1.02 | 1.02 | > 50 | > 50 |  |
| CC(C)NC(=O)c1ccc2nc(-c3cccc(NS(=O)(=O)NCCCN4CCCC4=O)c3)cn2c1 [Compound 53] | 0.88 | 0.88 | > 50 | > 50 |  |
| CC(C)NC(=O)c1ccc2nc(-c3cccc(NS(=O)(=O)NCCOCCO)c3)cn2c1 [Compound 42] | 0.55 | 0.55 | > 50 | > 50 |  |
| CC(C)NC(=O)c1ccc2nc(-c3cccc(NS(=O)(=O)NCCC(N)=O)c3)cn2c1 [Compound 56] | 0.52 | 0.52 | > 50 | > 50 |  |
| CC(C)NC(=O)c1ccc2nc(-c3cccc(NS(=O)(=O)NCCCN4CCOCC4)c3)cn2c1 [Compound 45] | 0.55 | 0.55 | > 50 | > 50 |  |
| CC(C)NC(=O)c1ccc2nc(-c3ccccn3)cn2c1 [Compound 91] | 14.8 | 14.8 |  |  |  |
| CC(C)NC(=O)c1ccc2nc(-c3cccc(N)c3)cn2c1 [Compound 38] | 10.7 | 10.7 | > 50 | > 50 |  |
| O=C(NCC1CC1)c1ccc2nc(-c3ccccc3)cn2c1 [Compound 29] | 6 | 6 |  |  |  |
| CC(C)NC(=O)c1ccc2nc(-c3cccc(NS(=O)(=O)NCCc4ccc(N)cc4)c3)cn2c1 [Compound 58] | 0.32 | 0.32 | > 50 | > 50 |  |
| CC(NC(=O)c1ccc2nc(-c3ccccc3)cn2c1)c1ccccn1 (stereo not shown) [Compound 30] | 6 | 6 |  |  |  |
| CC(C)NC(=O)c1ccc2nc(-c3cccc(NS(=O)(=O)NCCO)c3)cn2c1 [Compound 57] | 0.43 | 0.43 | > 50 | > 50 |  |

| Compound | IC50 [1, 2] [µM] | IC50 [1, 3] [µM] | IC50 (BRD4 bromodomain 1 (BD1); Table 1) [µM] | IC50 (BRD4 bromodomain 1 (BD1); Table 2) [µM] | IC50 [1, 4] [µM] |
| --- | --- | --- | --- | --- | --- |
| CC(C)NC(=O)c1ccc2nc(-c3cccc([N+](=O)[O-])c3)cn2c1 [Compound 36] | 3.7 | 3.7 | > 50 | > 50 |  |
| CNS(=O)(=O)Nc1cccc(-c2cn3cc(C(=O)NC(C)C)ccc3n2)c1 [Compound 52] | 0.39 | 0.39 | > 50 | > 50 |  |
| CC(C)NC(=O)c1ccc2nc(-c3cccc(NS(=O)(=O)NCCCO)c3)cn2c1 [Compound 44] | 0.56 | 0.56 | > 50 | > 50 |  |
| O=C(NC1CCC(O)CC1)c1ccc2nc(-c3ccccc3)cn2c1 (stereo not shown) [Compound 31] | 7 | 7 |  |  |  |
| CC(C)NC(=O)c1ccc2nc(-c3cccc(NS(=O)(=O)NCCCCCCC(=O)O)c3)cn2c1 [Compound 61] | 0.36 | 0.36 | > 50 | > 50 |  |
| CC(C)NC(=O)c1ccc2nc(-c3cccc(NS(=O)(=O)NCCCC(=O)O)c3)cn2c1 [Compound 60] | 0.69 | 0.69 | > 50 | > 50 |  |
| CC(C)NC(=O)c1ccc2nc(-c3cccc(N=S(=O)(F)F)c3)cn2c1 [Compound 40, (3-(6-(isopropylcarbamoyl)imidazo[1,2-a]pyridin-2-yl)phenyl)sulfurimidoyl difluoride] |  |  | > 50 | > 50 | 3.6 |
| CC(C)NC(=O)c1ccc2nc(-c3ccccc3C#N)cn2c1 [Compound 89] | 16.7 | 16.7 |  |  |  |
| COC(=O)[C@H]1CCCN1S(=O)(F)=Nc1cccc(-c2cn3cc(C(=O)NC(C)C)ccc3n2)c1 (stereo partly shown) [Compound 55] | 0.95 | 0.95 | > 50 | > 50 |  |
| CC(C)NC(=O)c1ccc2nc(-c3cccc(NS(=O)(=O)NCCCCO)c3)cn2c1 [Compound 43] | 0.47 | 0.47 |  |  |  |
| Cc1ccc(-c2cn3cc(C(=O)NC(C)c4cccnc4)ccc3n2)cc1 (stereo not shown) [Compound 35] | 10 | 10 |  |  |  |
| CCc1ccc(-c2cn3cc(C(=O)NC4CC4)ccc3n2)cc1 [Compound 28] | 5 | 5 |  |  |  |
| Cc1cc(-c2cn3cc(C(=O)NC(C)C)ccc3n2)ccn1 [Compound 88] | 7.05 | 7.05 |  |  |  |
| CC(C)NC(=O)c1ccc2nc(Cn3ccnc3)cn2c1 [Compound 90] | 26.6 | 26.6 |  |  |  |
| O=C(NC1CCC(O)CC1)c1ccc2nc(-c3ccc(F)cc3)cn2c1 (stereo not shown) [Compound 32] | 7 | 7 |  |  |  |
| CC(C)NC(=O)c1ccc2nc(-c3ccc(CN)cc3)cn2c1 [Compound 92] | 3.72 | 3.72 |  |  |  |
| O=C(NC1CC1)c1ccc2nc(-c3ccccc3)cn2c1 [Compound 33] | 9 | 9 |  |  |  |
